One test concerns the target human CYP11B1 (Homo sapiens (Human), UniProt P15538). In words: G-402 cellular enzyme assay, human CYP11B1 (cortisol release). It counts as cell-based. The note with it: G-402 cells expressing human CYP11B1, 1 μM Deoxycortisol. The method, boiled down: (§1)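 G-402 cells stably transfected with human CYP11B2 or CYP11B1, dosed with inhibitor and 1 μM deoxycorticosterone (CYP11B2) or 1 μM deoxycortisol (CYP11B1). Aldosterone or cortisol in supernatant quantified by HTRF; EC50 from 4-parameter MMF fit of steroid level versus inhibitor concentration.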

Test [1] addresses T1, CYP11B2 (Homo sapiens (Human), UniProt P19099). The test can be described thus: G-402 cellular enzyme assay, human CYP11B2 (aldosterone release). It counts as cell-based. To be noted: G-402 cells expressing human CYP11B2, 1 μM Deoxycorticosterone. The essentials: as §1
For test [2] the following is noted: rat CKD model; FAD286 4 weeks of treatment, spironolactone 4 and 8 weeks; cited from earlier work.
For test [3], the target named is T1, CYP11B2. The note with it: patients with primary aldosteronism, oral; cited from earlier work.

The values that follow come from US9187429B2, “Phenyl-tetrahydroisoquinoline derivatives” (Hoffmann-La Roche Inc., priority 2012, dated 2015).

T1 sequence (P19099 25-503): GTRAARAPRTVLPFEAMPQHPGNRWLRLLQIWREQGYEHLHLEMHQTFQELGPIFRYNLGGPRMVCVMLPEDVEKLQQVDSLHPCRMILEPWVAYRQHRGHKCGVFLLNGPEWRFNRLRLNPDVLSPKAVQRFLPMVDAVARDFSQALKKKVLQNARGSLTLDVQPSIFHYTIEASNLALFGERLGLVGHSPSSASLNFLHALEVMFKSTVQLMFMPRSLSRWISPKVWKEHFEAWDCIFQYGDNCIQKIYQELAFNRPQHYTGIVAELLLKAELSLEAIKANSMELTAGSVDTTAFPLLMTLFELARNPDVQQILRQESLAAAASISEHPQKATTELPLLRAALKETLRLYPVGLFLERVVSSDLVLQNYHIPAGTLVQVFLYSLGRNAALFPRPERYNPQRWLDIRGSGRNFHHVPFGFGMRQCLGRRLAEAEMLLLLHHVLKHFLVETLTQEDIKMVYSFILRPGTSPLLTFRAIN
human CYP11B1, sequence (P15538 25-503): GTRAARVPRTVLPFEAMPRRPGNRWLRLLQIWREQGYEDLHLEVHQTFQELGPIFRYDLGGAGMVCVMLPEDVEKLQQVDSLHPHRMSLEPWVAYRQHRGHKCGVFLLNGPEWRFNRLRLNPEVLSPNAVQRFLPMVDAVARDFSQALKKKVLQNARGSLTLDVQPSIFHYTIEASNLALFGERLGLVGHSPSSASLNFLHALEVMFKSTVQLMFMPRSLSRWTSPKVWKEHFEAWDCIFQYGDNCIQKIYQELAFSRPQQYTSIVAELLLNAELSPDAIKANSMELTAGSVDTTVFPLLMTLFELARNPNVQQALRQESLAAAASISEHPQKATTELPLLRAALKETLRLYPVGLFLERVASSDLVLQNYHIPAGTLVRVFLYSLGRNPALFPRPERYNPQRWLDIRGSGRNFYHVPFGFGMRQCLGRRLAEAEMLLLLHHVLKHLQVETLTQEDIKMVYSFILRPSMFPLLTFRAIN

As to `Cc1ccc(C2(O)CCCc3c(-c4ccc(C#N)cc4)cncc32)cc1C` (single isomer, unassigned; (-)) [Example 16, (−)-(R or S)-4-(8-(3,4-Dimethylphenyl)-8-hydroxy-5,6,7,8-tetrahydroisoquinolin-4-yl)benzonitrile], the EC50 came out at 488 nM on human CYP11B1 and 72 nM on CYP11B2 [1]. Turning to `CCC(=O)NC1CCc2c(-c3ccc(C#N)cc3)cncc21` (single isomer, unassigned; (-)) [Example 18, (−)-(S or R)—N-(4-(4-Cyanophenyl)-6,7-dihydro-5H-cyclopenta[c]pyridin-7-yl)propionamide], the half-maximal effective concentration (EC50) came out at 7220 nM on human CYP11B1 and 879 nM on CYP11B2 [1]. In the same order, the values of `CCC(=O)NC1CCCc2c(-c3ccc(Cl)cc3)cncc21` (single isomer, unassigned; (-)) [Example 25, (−)-(S or R)—N-(4-(4-Chlorophenyl)-5,6,7,8-tetrahydroisoquinolin-8-yl)propionamide] are 23100 nM and 467 nM. As to `CCC(=O)NC1CCCc2c(-c3ccc(F)c(C)c3)cncc21` (single isomer, unassigned; (-)) [Example 28, (−)-(S or R)—N-(4-(4-Fluoro-3-methylphenyl)-5,6,7,8-tetrahydroisoquinolin-8-yl)propionamide], the EC50 at human CYP11B1 worked out at 30400 nM; at CYP11B2 [1], 226 nM. In the same order, the values of `CCC(=O)NC1CCCc2c(-c3ccc(C(F)(F)F)cc3F)cncc21` (single isomer, unassigned; (-)) [Example 34, (−)-(S or R)—N-(4-(2-Fluoro-4-(trifluoromethyl)phenyl)-5,6,7,8-tetrahydroisoquinolin-8-yl)propionamide] are 42400 nM and 4490 nM. As to `CCC(=O)NC1CCCc2c(-c3ccc(Cl)c(F)c3)cncc21` (single isomer, unassigned; (-)) [Example 37, (−)-(S or R)—N-(4-(4-Chloro-3-fluorophenyl)-5,6,7,8-tetrahydroisoquinolin-8-yl)propionamide], the EC50 was found to be 31400 nM at human CYP11B1 and 1260 nM at CYP11B2 [1]. In the same order, the values of `CCC(=O)NC1CCCc2c(-c3ccc(C(F)(F)F)c(F)c3)cncc21` (single isomer, unassigned; (-)) [Example 40, (−)-(S or R)—N-(4-(3-Fluoro-4-(trifluoromethyl)phenyl)-5,6,7,8-tetrahydroisoquinolin-8-yl)propionamide] are 32500 nM and 4850 nM.

As to `C[C@@H](O)C(=O)NC1CCCc2c(-c3ccc(C(F)(F)F)cc3)cncc21` (single isomer, unassigned; (-)) [Example 48, (−)-(R)-2-Hydroxy-N—[(S or R)-4-(4-trifluoromethyl-phenyl)-5,6,7,8-tetrahydro-isoquinolin-8-yl]-propionamide], the values for the EC50 at human CYP11B1 and on CYP11B2 [1] were 2100 nM and 79 nM, respectively. Regarding `CCC(=O)NC1CCc2c(-c3ccc(Cl)c(F)c3)cncc21` (single isomer, unassigned; (-)) [Example 56, (−)-(S or R)—N-(4-(4-Chloro-3-fluorophenyl)-6,7-dihydro-5H-cyclopenta[c]pyridin-7-yl)propionamide], the EC50 was found to be 38300 nM at human CYP11B1 and 3210 nM at CYP11B2 [1]. Turning to `CCC(=O)NC1CCc2c(-c3ccc(C(F)(F)F)cc3F)cncc21` (single isomer, unassigned; (-)) [Example 62, (−)-(S or R)—N-(4-(2-Fluoro-4-(trifluoromethyl)phenyl)-6,7-dihydro-5H-cyclopenta[c]pyridin-7-yl)propionamide], the EC50 worked out at 14700 nM at human CYP11B1 and 1680 nM on CYP11B2 [1]. For `CCS(=O)(=O)NC1CCc2c(-c3ccc(C(F)(F)F)cc3)cncc21` (single isomer, unassigned; (-)) [Example 65, (−)-(S or R)—N-(4-(4-(Trifluoromethyl)phenyl)-6,7-dihydro-5H-cyclopenta[c]pyridin-7-yl)ethanesulfonamide], in that order: 1080 nM and 1630 nM.

Turning to `OC1CCCc2c(-c3ccc(C(F)(F)F)cc3)cncc21` (single isomer, unassigned; (-)) [Example 105, (−)-(S or R)-4-(4-(Trifluoromethyl)phenyl)-5,6,7,8-tetrahydroisoquinolin-8-ol], the values for the EC50 on human CYP11B1 and at CYP11B2 [1] were 1670 nM and 107 nM, respectively. In the same order, the values of `C[C@@H](O)C(=O)NC1CCCc2c(-c3ccc(C(F)(F)F)cc3)cncc21` (stereo partly drawn) [Example 46, (R)-2-Hydroxy-N—[(S,R)-4-(4-trifluoromethyl-phenyl)-5,6,7,8-tetrahydro-isoquinolin-8-yl]-propionamide] are 3760 nM and 160 nM. On to `C[C@@H](O)C(=O)NC1CCc2c(-c3ccc(C(F)(F)F)cc3)cncc21` (stereo partly drawn) [Example 52, (R)-2-Hydroxy-N—((R,S)-4-(4-(trifluoromethyl)phenyl)-6,7-dihydro-5H-cyclopenta[c]pyridin-7-yl)propanamide], for which the EC50 on human CYP11B1 stood at 3710 nM; on CYP11B2 [1] it was 203 nM. For the molecule `N[C@@H]1CCCc2c(-c3ccc(C(F)(F)F)cc3F)cncc21` [Example 74, (+)-(R)-4-(2-Fluoro-4-(trifluoromethyl)phenyl)-5,6,7,8-tetrahydroisoquinolin-8-amine], the EC50 worked out at 1220 nM at human CYP11B1 and 32.8 nM at CYP11B2 [1]. As for `CC(=O)N[C@@H]1CCCc2c(-c3ccc(C(F)(F)F)cc3F)cncc21` [Example 75, (+)-(R)—N-(4-(2-Fluoro-4-(trifluoromethyl)phenyl)-5,6,7,8-tetrahydroisoquinolin-8-yl)acetamide], the EC50 on human CYP11B1 came to 3540 nM; on CYP11B2 [1] it was 51.2 nM.

As to `CS(=O)(=O)N[C@@H]1CCCc2c(-c3ccc(C(F)(F)F)cc3F)cncc21` [Example 76, (+)-(R)—N-(4-(2-Fluoro-4-(trifluoromethyl)phenyl)-5,6,7,8-tetrahydroisoquinolin-8-yl)methanesulfonamide], the EC50 at human CYP11B1 was determined as 23200 nM; at CYP11B2 [1] it was 118 nM.

As for `CC(=O)N[C@@H]1CCCc2c(-c3ccc(C(F)(F)F)cc3)cncc21` [Example 77, (+)-(R)—N-(4-(4-(Trifluoromethyl)phenyl)-5,6,7,8-tetrahydroisoquinolin-8-yl)acetamide], the EC50 at human CYP11B1 was 2240 nM; at CYP11B2 [1] it was 58.8 nM. In the same order, the values of `CC(=O)N[C@@H]1CCCc2c(-c3ccc(C#N)cc3)cncc21` [Example 78, (+)-(R)—N-(4-(4-Cyanophenyl)-5,6,7,8-tetrahydroisoquinolin-8-yl)acetamide] are 276 nM and 23.3 nM. For `CC(=O)N[C@@H]1CCCc2c(-c3ccc(C(F)(F)F)c(F)c3)cncc21` [Example 79, (+)-(R)—N-(4-(3-Fluoro-4-(trifluoromethyl)phenyl)-5,6,7,8-tetrahydroisoquinolin-8-yl)acetamide], the EC50 at human CYP11B1 was determined as 1780 nM; on CYP11B2 [1], 35.6 nM. For `CCC(=O)N[C@@H]1CCCc2c(-c3ccc(C(F)(F)F)cc3C3CC3)cncc21` [Example 107, (R)—N-(4-(2-Cyclopropyl-4-(trifluoromethyl)phenyl)-5,6,7,8-tetrahydroisoquinolin-8-yl)propionamide], in that order: 7830 nM and 964 nM.

For `N#Cc1ccc(C2CCCc3cncn32)cc1` (centres unmarked) [FAD286], the plasma aldosterone result in test [2] is “reduced”.

For `N#Cc1ccc([C@H]2CCc3cncn32)c(F)c1` [LCI699], on CYP11B2 [3], the blood pressure result is “mildly decreased”, the circulating aldosterone levels entry is given as “significantly lower” and the hypokalemia result was “corrected”.

For the molecule `CC(=O)S[C@@H]1CC2=CC(=O)CC[C@]2(C)[C@H]2CC[C@@]3(C)[C@@H](CC[C@@]34CCC(=O)O4)[C@H]12` [spironolactone], the plasma aldosterone result in test [2] was “increased”.

For orientation: EC50 means the concentration that produces a half-maximal response. A higher EC50 goes with weaker potency.
